# In US7569517B2, “4-biphenyl-substituted pyrazolidin-3 5-diones pesticide agent and/or microbicide and/or herbicide” (Bayer CropScience AG, priority 2003, dated 2009):
# Experiments:
# Assay type in all cases: in vivo
# [1] = system: Meloidogyne incognita; assay: Meloidogyne test (Example A); conditions: 20 ppm active compound; nematicidal action by formation of galls on lettuce roots; 100% = no galls
# Description: • Solvent: 7 parts by weight of dimethylformamide • Emulsifier: 2 parts by weight of alkylaryl polyglycol ether
# To produce a suitable preparation of active compound, 1 part by weight of active compound is mixed with the stated amounts of solvent and emulsifier, and the concentrate is diluted with water to the desired concentration.
# Containers are filled with sand, solution of active compound, Meloidogyne incognita egg/larvae suspension and lettuce seeds. The lettuce seeds germinate and the plants develop. On the roots, galls are formed.
# After the desired period of time, the nematicidal action is determined in % by the formation of galls. 100% means that no galls were found; 0% means that the number of galls on the treated plants corresponds to that of the untreated control.
# [2] = system: monocotyledonous and dicotyledonous weed and crop plants (cereals); assay: Herbicidal post-emergence action, use of safeners, container trials with cereals in the greenhouse (Example I); conditions: without safener
# Description: (§1) Herbicidal Post-emergence Action
# Seeds of monocotyledonous and dicotyledonous weed and crop plants are placed into sandy loam in wood fibre pots or in plastic pots, covered with soil and cultivated in a greenhouse, during the vegetation period also outdoors outside of the greenhouse, under good growth conditions. 2-3 weeks after sowing, the test plants are treated at the one- to three-leaf stage. The test compounds, formulated as wettable powders (WP), or emulsifiable concentrates (EC), are, in various dosages with a water application rate of 300 l/ha (converted), with wetting agent (0.2 to 0.3%) added, sprayed onto the plants and the surface of the soil. 3-4 weeks after the treatment of the test plants, the effect of the preparations is rated visually in comparison to untreated controls (herbicidal effect in precent (%): 100% effect=the plants have died, 0% effect=like control plants).
# If it is additionally to be tested whether safeners can improve the plant compatibility of test substances in the case of the crop plants, the following option is used for applying the safener: • seeds of the crop plants are, before sowing, dressed with the safener substance (the amount of safener is stated in percent, based on the weight of seed) • before the application of the test substances, the crop plants are sprayed with the safener at a certain application rate per hectare (usually 1 day before the application of the test substances) • the safener is applied together with the test substance as a tank mix (the amount of safener is stated in g/ha or as a ratio, based on the herbicide).
# By comparing the effect of test substances on crop plants without or with safener treatment, it is possible to assess the effect of the safener substance.
# [3] = system: greenhouse red spider mite (Tetranychus urticae); assay: Tetranychus test (OP-resistance/spray treatment) (Example E); conditions: 100 g/ha; sprayed bean leaf discs
# Description: Tetranychus Test (OP-resistance/Spray Treatment)
# • Solvents: 78 parts by weight of acetone • 1.5 parts by weight of dimethylformamide • Emulsifier: 0.5 part by weight of alkylaryl polyglycol ether
# To prepare a suitable preparation of active compound, 1 part by weight of active compound is mixed with the stated amounts of solvents and emulsifier, and the concentrate is diluted with emulsifier-containing water to the desired concentration.
# Discs of bean leaves (Phaseolus vulgaris) which are infested by all stages of the greenhouse red spider mite (Tetranychus urticae) are sprayed with a preparation of active compound of the desired concentration.
# After the desired period of time, the activity in % is determined. 100% means that all spider mites have been killed; 0% means that none of the spider mites have been killed.
# [4] = system: monocotyledonous and dicotyledonous weed and crop plants; assay: Herbicidal pre-emergence action (Example G); conditions: greenhouse, 320 g of a.i./ha
# From the text: Herbicidal Pre-emergence Action
# Seeds of monocotyledonous and dicotyledonous weed and crop plants are placed into sandy loam in wood fibre pots and covered with soil. The test compounds, formulated in the form of wettable powders (WP), are then, in various dosages as aqueous suspension with a water application rate of 600 l/ha (converted), with 0.2% of wetting agent added, applied to the surface of the covering soil. After the treatment, the pots are placed in a greenhouse and kept under good growth conditions for the test plants. The visual assessment of the emergence damage on the test plants is carried out after a trial period of 3 weeks by comparison with untreated controls (herbicidal effect in percent (%): 100% effect=the plants have died, 0% effect=like control plants).
# [5] = system: monocotyledonous and dicotyledonous weed and crop plants; assay: Herbicidal post-emergence action (Example H); conditions: greenhouse, 320 g of a.i./ha
# Description: as §1
# Seeds of monocotyledonous and dicotyledonous weed and crop plants are placed into sandy loam in wood fibre pots, covered with soil and cultivated in a greenhouse under good growth conditions. 2-3 weeks after sowing, the test plants are treated at the one-leaf stage. The test compounds, formulated as wettable powders (WP), are, in various dosages with a water application rate of 600 l/ha (converted), with 0.2% of wetting agent added, sprayed onto the green parts of the plants. After the test plants were kept in a greenhouse under optimum growth conditions for about 3 weeks, the effect of the preparations is rated visually in comparison to untreated controls (herbicidal effect in percent (%): 100% effect=the plants have died, 0% effect=like control plants).
structure (smiles),measurement,setting,value
Cc1cc(-c2ccc(Cl)cc2)cc(C)c1C1(Cl)C(=O)N2CCCCN2C1=O [Ex. I-3-1],Effect in % after 14d,[1],100%
same,Summer barley observed (%),[2]; 50 g of a.i./ha,80%
same,Summer wheat observed (%),[2]; 50 g of a.i./ha,60%
same,Summer barley observed (%),[2]; 100 g of a.i./ha,80%
same,Summer wheat observed (%),[2]; 100 g of a.i./ha,60%
Cc1cc(-c2ccc(Cl)cc2)cc(C)c1C1(Cl)C(=O)N2CCOCCN2C1=O [Ex. I-4-1],Kill rate in % after 5d,[3],90%
same,"herbicidal effect, Echinochloea",[4]; Echinochloea,70%
same,"herbicidal effect, Setaria",[4]; Setaria,80%
same,"herbicidal effect, Sorghum",[4]; Sorghum,70%
same,"herbicidal effect, Soybeans",[4]; Soybeans,0%
same,"herbicidal effect, Wheat",[4]; Wheat,0%
same,"herbicidal effect, Alopecurus",[5]; Alopecurus,80%
same,"herbicidal effect, Digitaria",[5]; Digitaria,100%
same,"herbicidal effect, Lolium",[5]; Lolium,80%
same,"herbicidal effect, Setaria",[5]; Setaria,100%
same,"herbicidal effect, Sugarbeets",[5]; Sugarbeets,10%
same,Summer barley observed (%),[2]; 25 g of a.i./ha,40%
same,Summer wheat observed (%),[2]; 25 g of a.i./ha,60%
same,Summer barley observed (%),[2]; 50 g of a.i./ha,95%
same,Summer wheat observed (%),[2]; 50 g of a.i./ha,97%
same,Summer barley observed (%),[2]; 100 g of a.i./ha,97%
same,Summer wheat observed (%),[2]; 100 g of a.i./ha,97%
